Among the data in PubChem BioAssay (NCI) are TGI values, retold here.

Among the test systems are EKVX NSCLC; SK-MEL-28 melanoma; HT29 colon; OVCAR-8 ovarian; U251 CNS; SW-620 colon; LOX IMVI melanoma; OVCAR-4 ovarian; NCI/ADR-RES ovarian; MDA-MB-435; TK-10 renal; K-562 leukemia.
Common to all, as to assay: inhibition of tumour cell growth, NCI panel, 48 h

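Test compounds were applied to cells in 96-well plates for 48 hours at 5 doses. TGI is the concentration that stops growth completely.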

For `COc1cccc(C2c3cc4c(cc3OC(NNC(N)=O)C2C)OCO4)c1O` (stereo unspecified), the TGI in the test with EKVX NSCLC is above 50.9 µM; with SK-MEL-28 melanoma, above 69.6 µM; in the test on HT29 colon, above 23 µM; in the test with OVCAR-8 ovarian, above 33.8 µM; in the test with U251 CNS, 34.3 µM; in the test with SW-620 colon, above 100 µM. The TGI in the test with LOX IMVI melanoma is above 100 µM; in the test with OVCAR-4 ovarian, above 100 µM; in the test with NCI/ADR-RES ovarian, above 100 µM; in the test with MDA-MB-435 it was 0.523 µM; in the test on TK-10 renal it was above 75.5 µM; with K-562 leukemia, above 100 µM.
In the case of `CC(=O)c1cc(CC2Cc3cc4c(cc3C2=O)CCC4)cc2c1CCC2` (stereo unspecified), the TGI with EKVX NSCLC, with SK-MEL-28 melanoma, in the test with HT29 colon, in the test with OVCAR-8 ovarian, in the test with U251 CNS and with SW-620 colon was above 100 µM each time. The TGI with LOX IMVI melanoma, in the test on OVCAR-4 ovarian, with NCI/ADR-RES ovarian, in the test on MDA-MB-435, in the test on TK-10 renal and in the test on K-562 leukemia was above 100 µM each time.
Consider `COc1ccc2nc3cc([N+](=O)[O-])ccc3c(NNc3ccc([N+](=O)[O-])cc3)c2c1`, for which the TGI is above 100 µM in the test with EKVX NSCLC; above 100 µM in the test with SK-MEL-28 melanoma; above 63.9 µM in the test with HT29 colon; above 100 µM in the test on OVCAR-8 ovarian; above 93.7 µM with U251 CNS; above 64.7 µM in the test on SW-620 colon. Also, the TGI with LOX IMVI melanoma was above 100 µM; in the test with OVCAR-4 ovarian, above 100 µM; in the test on NCI/ADR-RES ovarian, above 100 µM; with MDA-MB-435, above 100 µM; in the test on TK-10 renal, above 24.2 µM; in the test with K-562 leukemia it was above 100 µM.
For `COC(=O)CNC(=O)CNC(=O)CSc1nnc(COc2ccc(Cl)cc2)n1-c1ccccc1`, the TGI in the test on EKVX NSCLC was above 100 µM; in the test with SK-MEL-28 melanoma, 56.3 µM; in the test on HT29 colon, above 100 µM; in the test with OVCAR-8 ovarian, above 100 µM; in the test with U251 CNS, above 100 µM; in the test on SW-620 colon it was above 100 µM. In addition, the TGI in the test with LOX IMVI melanoma is 57.7 µM; in the test on OVCAR-4 ovarian it was above 100 µM; in the test on NCI/ADR-RES ovarian, above 100 µM; in the test with MDA-MB-435, 34.5 µM; in the test on TK-10 renal, above 100 µM; with K-562 leukemia, above 100 µM.
As for `CCN(CC)C(=S)/N=C(\SC(=S)N(CC)CC)c1ccccc1`, the TGI with EKVX NSCLC, with SK-MEL-28 melanoma, with HT29 colon, in the test with OVCAR-8 ovarian, in the test with U251 CNS and with SW-620 colon was above 100 µM throughout. Further, the TGI in the test on LOX IMVI melanoma is 36.1 µM; in the test on OVCAR-4 ovarian, above 100 µM; with NCI/ADR-RES ovarian it was above 100 µM; with MDA-MB-435 it was above 100 µM; in the test on TK-10 renal it was above 100 µM; in the test with K-562 leukemia, above 100 µM.
For `Cc1ccc(NC(=O)CC(=O)N2N=C(N3CCCCC3)CC2c2ccccc2)cc1` (stereo unspecified), the TGI in the test with EKVX NSCLC, with SK-MEL-28 melanoma, in the test with HT29 colon, in the test with OVCAR-8 ovarian, in the test with U251 CNS and with SW-620 colon was above 100 µM in each case. For the same compound, the TGI in the test on LOX IMVI melanoma, with OVCAR-4 ovarian, in the test with NCI/ADR-RES ovarian, in the test with MDA-MB-435 and with TK-10 renal was above 100 µM throughout.
With `COc1ccc(C(OC(=O)[C@H](O[Si](C)(C)C(C)(C)C)[C@@H](NC(=O)c2ccccc2)c2ccccc2)c2ccc(OC)cc2)cc1`, the TGI with EKVX NSCLC, in the test with HT29 colon, with OVCAR-8 ovarian, in the test with U251 CNS, with SW-620 colon and in the test on LOX IMVI melanoma was above 100 µM throughout. Also, the TGI in the test on OVCAR-4 ovarian, in the test on NCI/ADR-RES ovarian, with MDA-MB-435, in the test on TK-10 renal and in the test on K-562 leukemia was above 100 µM each time.
Consider `CC(=O)Nc1ncc2c(n1)-c1ccccc1OC2c1ccccc1` (stereo unspecified), for which the TGI was above 100 µM in the test on EKVX NSCLC; above 100 µM in the test on HT29 colon; 66.2 µM in the test on OVCAR-8 ovarian; above 100 µM in the test on U251 CNS; above 100 µM in the test on SW-620 colon; above 100 µM in the test on LOX IMVI melanoma. Moreover, the TGI in the test with OVCAR-4 ovarian was 85.5 µM; with NCI/ADR-RES ovarian, above 100 µM; with MDA-MB-435 it was above 100 µM; with TK-10 renal, 63.2 µM.
With `O=c1ccn(Cc2ccccc2CCl)c(=O)[nH]1`, the TGI with EKVX NSCLC was 59.6 µM; in the test on SK-MEL-28 melanoma it was above 100 µM; with HT29 colon, 68.6 µM; in the test on OVCAR-8 ovarian it was 55.8 µM; in the test with U251 CNS it was 85.2 µM; with SW-620 colon it was above 100 µM. The TGI with OVCAR-4 ovarian is above 100 µM; in the test with NCI/ADR-RES ovarian it was 44.4 µM; in the test on MDA-MB-435, 96.5 µM; in the test on TK-10 renal, above 100 µM; in the test with K-562 leukemia, above 100 µM.
`COc1ccc(C(=O)N2CCN(c3ccc4c(c3)OCC(=O)N4)CC2)cc1OC`: the TGI with EKVX NSCLC, in the test on SK-MEL-28 melanoma, in the test on HT29 colon, in the test with OVCAR-8 ovarian, with U251 CNS and in the test on SW-620 colon was above 100 µM throughout. The TGI in the test on LOX IMVI melanoma, in the test with OVCAR-4 ovarian, with NCI/ADR-RES ovarian, with MDA-MB-435 and with TK-10 renal was above 100 µM each time.
As to `O=C1NC(=S)N/C1=C\c1ccc(Cl)cc1`, the TGI in the test on EKVX NSCLC, with SK-MEL-28 melanoma, in the test on HT29 colon, with OVCAR-8 ovarian, with U251 CNS and in the test on SW-620 colon was above 100 µM each time. Also, the TGI with LOX IMVI melanoma, with OVCAR-4 ovarian, in the test with NCI/ADR-RES ovarian, in the test with MDA-MB-435 and in the test with TK-10 renal was above 100 µM in each case.
In the case of `CCCCC(O)(c1ccccc1)C(O)(c1ccccc1)c1c(F)c(F)c(F)c(F)c1F` (stereo unspecified), the TGI with EKVX NSCLC was 59.6 µM; in the test on SK-MEL-28 melanoma, 86.1 µM; in the test with HT29 colon, 32.3 µM; with OVCAR-8 ovarian it was 55.5 µM; with U251 CNS, 32 µM; in the test on SW-620 colon it was 61.8 µM. Besides, the TGI was above 100 µM in the test with OVCAR-4 ovarian; 49.1 µM in the test on NCI/ADR-RES ovarian; above 100 µM in the test on MDA-MB-435; 84.8 µM with TK-10 renal; 82.4 µM in the test with K-562 leukemia.
